From patent publication US7482027B2, “Composition for the prevention or treatment of diseases associated with angiogenesis” (AngioLab, Inc., priority 2005, dated 2009)

Test system: HUVEC tube formation
Assay: HUVEC tube formation inhibition assay
Assay type: cell-based, Human
Design: key to Tube formation inhibition: −: no inhibition of tube formation; +/−: rare inhibition of tube formation; +: light inhibition of tube formation and slight tube cleavage; ++: significant inhibition of tube formation and heavy tube cleavage; +++: no tube formation
Conditions: 50 μg/ml; for Tube formation inhibition: TABLE 2, HUVEC on Matrigel, 18 hours; for Inhibition of HUVEC tube formation (in words): text summary of TABLES 1 and 2
Description: Human umbilical vein endothelial cells (HUVECs) were isolated from freshly obtained cords after cesarean section according to Grants' method (Grants D S et al., Cell, 58, pp 923-943, 1989). The isolated HUVECs were grown in culture media comprising M-199 (Gibco BRL, 31100-035), 10% FBS, 50 μg/ml ECGS (Endothelial cell growth supplement, Sigma E2795), and 50 μg/ml heparin (Sigma H3149).
HUVECs isolated in REFERENCE EXAMPLE 1 were cultured within passage 5, and then were divided into 20,000 to 50,000 cells per well of 48 well plate coated with, Matrigel (BD Biosciences, Bedford, Mass.). Crude extracts, non-polar solvent extracts, or fractions of C. officinale of EXAMPLES 1 to 4 were added to the above HUVEC culture well at the concentration of 50 μg/ml, respectively, and DMSO was added as a control. They were grown with culture media of the above REFERENCE EXAMPLE 1.
After HUVECs were further incubated at 37° C. for 18 hours, tube formation was observed using microscope. The results were summarized in TABLES 1 and 2 (−: no inhibition of tube formation, +/− rare inhibition of tube formation, +: light inhibition of tube formation and slight tube cleavage, ++: significant inhibition of tube formation and heavy tube cleavage, +++: no tube formation).

| Structure (SMILES) | Tube formation inhibition | Inhibition of HUVEC tube formation (in words) |
| --- | --- | --- |
| CCCCC1OC(=O)c2c(O)cccc21 (single isomer, unassigned) [AS44-C-2-C-b-III, 3-butyl-7-hydroxyphthalide] | +++ | strongly inhibited HUVEC tube formation |
| C=CC(O)C#CC#CC(O)C=C (single isomer, unassigned) [AS44-C-2-D-b-IV, 1,9-decadiene-4,6-diyne-3,8-diol] | +++ | strongly inhibited HUVEC tube formation |
